“Also recorded” adds a separate entry of the source. Read-outs that look alike come from different tables or passages of the source. Square brackets hold non-standard residues; d marks the D form. Peptide text beside a SMILES is read from it. Nle = CCCC[C@H](N)C(=O)O
Columns and labels:
papain = biological target: T1, papain (Carica papaya, UniProt P00784); assay: Selectivity: papain protease assay (casein substrate); format: biochemical; details: Table II; read-out: Inhibitory Activity of Thiol-Acrylates, Papain (IC50)
T1 construct: purchased Sigma P3125; host or cells: papaya latex
T1 sequence (P00784 134-345): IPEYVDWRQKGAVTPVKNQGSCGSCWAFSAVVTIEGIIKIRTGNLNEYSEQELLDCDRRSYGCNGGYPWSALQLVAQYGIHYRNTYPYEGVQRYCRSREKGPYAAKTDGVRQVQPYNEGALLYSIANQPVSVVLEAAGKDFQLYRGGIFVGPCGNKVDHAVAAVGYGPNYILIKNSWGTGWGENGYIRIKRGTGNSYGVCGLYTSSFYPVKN
Protocol: (§1) Calpain I was assayed as described (α-mercaptoacrylic acid). Ten to 20 ng papain (papaya latex, Sigma, P3125), 1.25 μg trypsin (bovine pancreas, Sigma, T8003), and 5 μg thermolysin (Bacillus thermoproteolyticus, Sigma, P1512) were assayed using 0.5 mg/mL casein as substrate in the microplate format (250 μL reaction volume), essentially as described by Buroker-Kilgore M., Wang K. K. W., Anal Biochem 1993;208:387-392. Inhibition of these proteases are presented as IC50.

[1] = tested on: spectrin breakdown in rat cortical cell cultures; assay: Spectrin Breakdown Measurement (immunoblot); format: cell-based; details: NMDA-treated cortical cells, 4-hour post-NMDA
Protocol: Rat cortical cell cultures were treated with NMDA in the absence or presence of calpain inhibiting compounds as described in "Assay of LDH" above. At the end of the 4-hour post-NMDA incubation, cells were lysed with 300 μL buffer containing 20 mM Tris-HCL (pH 7.4 at 4° C.), 1% SDS, 5 mM EGTA, 5 mM EDTA, 1 mM DTT, and various protease inhibitors. Total cellular protein was precipitated by 100 μL of 100% trichloroacetic acid. The samples were centrifuged and the pelleted protein solubilized with 50 μl of 3M Tris base. […] The blots were then probed with rabbit antibrain spectrin antibody (primary antibody) followed by alkaline phosphatase-conjugated goat antirabbit immunoglobulin G antibody (secondary antibody). […] The SBP were quantified by densitometry (BioRad Model 620).

trypsin = biological target: T2, trypsin (Bos taurus, UniProt P00760); assay: Selectivity: trypsin protease assay (casein substrate); format: biochemical, bovine; details: Table II; read-out: Inhibitory Activity of Thiol-Acrylates, Trypsin (IC50)
T2 construct: purchased Sigma T8003; host or cells: bovine pancreas
T2 sequence (P00760 24-246): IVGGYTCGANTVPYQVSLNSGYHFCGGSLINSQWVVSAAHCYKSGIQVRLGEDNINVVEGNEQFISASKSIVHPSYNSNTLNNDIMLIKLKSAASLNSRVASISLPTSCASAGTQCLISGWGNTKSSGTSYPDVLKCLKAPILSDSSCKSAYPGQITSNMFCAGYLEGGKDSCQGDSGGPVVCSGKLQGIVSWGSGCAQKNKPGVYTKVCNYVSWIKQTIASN
Protocol: as §1

[2] = tested on: Fetal rat cortical cell cultures; assay: Assay of Lactate Dehydrogenase (LDH): NMDA-induced LDH release; format: cell-based; details: 500 μM NMDA; 200 μM calpain inhibiting compound; FIG. II
Protocol: Seventeen-day-old cultures were pretreated with 200 μM calpain inhibiting compound (when added) for 1 hour before treatment of 500 μM N-methyl-D-aspartate (NMDA) for 30 minutes (in the absence or the presence of the compound).

calpain I [3] = biological target: T3, calpain I (Homo sapiens, UniProt P07384); assay: Assay of Calpain Activity (casein substrate, microplate, Coomassie blue); format: biochemical; set-up: Calpain I was purified from human erythrocytes; from tissue; host or cells: human erythrocytes
T3 sequence (P07384 1-714): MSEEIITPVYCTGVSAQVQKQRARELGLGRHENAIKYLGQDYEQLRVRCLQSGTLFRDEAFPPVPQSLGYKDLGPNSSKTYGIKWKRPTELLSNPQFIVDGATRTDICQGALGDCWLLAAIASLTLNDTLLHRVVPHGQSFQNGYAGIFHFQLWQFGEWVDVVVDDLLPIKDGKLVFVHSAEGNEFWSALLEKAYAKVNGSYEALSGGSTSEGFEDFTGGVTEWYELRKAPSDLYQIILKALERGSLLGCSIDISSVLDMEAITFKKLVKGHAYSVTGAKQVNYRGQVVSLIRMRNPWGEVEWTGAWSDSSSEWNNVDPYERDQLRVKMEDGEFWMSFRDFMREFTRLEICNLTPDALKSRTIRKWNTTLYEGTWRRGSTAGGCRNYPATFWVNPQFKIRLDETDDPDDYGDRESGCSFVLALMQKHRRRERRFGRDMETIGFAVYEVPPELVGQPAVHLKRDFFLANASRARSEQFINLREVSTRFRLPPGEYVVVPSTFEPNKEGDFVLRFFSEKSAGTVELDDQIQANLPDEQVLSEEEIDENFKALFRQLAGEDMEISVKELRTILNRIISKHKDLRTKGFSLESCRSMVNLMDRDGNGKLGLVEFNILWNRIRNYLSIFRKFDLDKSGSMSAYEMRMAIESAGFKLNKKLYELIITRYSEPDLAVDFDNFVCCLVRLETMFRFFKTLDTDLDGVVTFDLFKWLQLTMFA
T3 sequence (P04632 1-268 partner): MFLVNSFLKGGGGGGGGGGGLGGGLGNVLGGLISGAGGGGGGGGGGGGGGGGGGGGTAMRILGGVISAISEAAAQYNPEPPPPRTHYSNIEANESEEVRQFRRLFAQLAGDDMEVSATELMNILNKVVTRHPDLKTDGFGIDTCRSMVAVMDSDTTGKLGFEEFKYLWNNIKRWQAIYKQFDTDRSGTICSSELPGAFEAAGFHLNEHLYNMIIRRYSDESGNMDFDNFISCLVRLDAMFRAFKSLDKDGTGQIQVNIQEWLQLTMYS
Protocol: (§2) In 250 μL of reaction mixture, substrate casein (0.5 mg/mL) was incubated with 0.01 unit (80-120 ng) calpain I, 20 mM dithiothreitol (DTT), 50 mM Tris-HCl (pH 7.4 at 25° C.), and 4 mM CaCl2 at 25° C. for 60 minutes. Two 100-μL aliquots were taken for Coomassie blue binding analysis to quantify the remaining casein.
Calpain I was assayed as described (α-mercaptoacrylic acid). […] Inhibition of these proteases are presented as IC50.

thermolysin = biological target: T4, thermolysin (Bacillus thermoproteolyticus, UniProt P00800); assay: Selectivity: thermolysin protease assay (casein substrate); format: biochemical
T4 construct: purchased Sigma P1512; host or cells: Bacillus thermoproteolyticus
Protocol: as §1

calpain I [4] = biological target: T3, calpain I; assay: Casein Breakdown by calpain I (SDS-PAGE); format: biochemical; set-up: casein substrate; details: 30 μM compound, 0.8 nM calpain I, all time points up to 120 minutes
Protocol: Casein (15 μM) was incubated with 0.8 nM calpain I, 15 mM DTT, 45 mM Tris-HCl (pH 7.4 at 25° C.) and in the presence or the absence of compound Example 3 (30 μM) for up to 120 minutes. Aliquots of the samples were taken at several time points and subjected to SDS-polyacrylamide gel electrophoresis (SDS-PAGE) as described by Laemmli U. K., Nature 1970;[…]. Casein and its fragments were visualized by Coomassie G250 staining of the gel.

calpain I [5] = biological target: T3, calpain I; assay: Calpain inhibition after treatment with rabbit liver esterase; format: biochemical; set-up: casein substrate; details: FIG. I
Protocol: as §2, with “Calpain I was purified from human erythrocytes as described by Wang K. K. W., Roufogalis B. D., Villalobo A., Arch Biochem Biophys 1988;267:317-327.Calpain activity was assayed in a 96-well microplate format (Buroker-Kilgore M., Wang K. K. W., Anal Biochem 1993;208:387-392). In” for “In”
Various concentrations of the compound of Example 6 (250 nM to 2.5 mM) were pretreated with 0.2 unit rabbit liver esterase (Sigma E9636) in 50 μL containing 50 mM Tris-HCl (pH 7.4 at 25° C.), 5 mM DTT at 25° C. for 60 minutes. The mixture was then tested for calpain inhibition with the calpain assay described above.
The esterase presumably hydrolyzed the only ester bond in the molecule, producing the free acid compound which is identical to the compound of Example 3.

myocardiac infraction = details: dogs, coronary reperfusion after acute myocardiac infraction; cited from earlier work
restenosis = details: in vivo; cited from earlier work
smooth muscle cells = details: cited from earlier work
[6] = Table I, 4 mM CaCl2, pH 7.4, 25° C., 60 minutes, read-out: Inhibitory Activity Against Human Calpain I IC50

T4 sequence (P00800 233-548): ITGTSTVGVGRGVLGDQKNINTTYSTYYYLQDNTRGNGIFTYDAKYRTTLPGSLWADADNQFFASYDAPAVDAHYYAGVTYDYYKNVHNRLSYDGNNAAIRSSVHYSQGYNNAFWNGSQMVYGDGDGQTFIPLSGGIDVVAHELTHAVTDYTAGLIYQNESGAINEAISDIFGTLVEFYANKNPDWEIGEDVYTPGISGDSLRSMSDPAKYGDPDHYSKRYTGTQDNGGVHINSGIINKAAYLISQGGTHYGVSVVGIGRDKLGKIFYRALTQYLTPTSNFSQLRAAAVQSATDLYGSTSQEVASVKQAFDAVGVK

## O=C(O)/C(S)=C/c1ccc2ccccc2c1 [Example 3, (Z)-2-Propenoic Acid, 2-mercapto-3-(7-naphthalenyl)]
papain
  IC50: > 200 µM
[1]
  spectrin breakdown product (SBP) formation, 150 kDa and 145 kDa (in words): partially blocked SBP formation
trypsin
  IC50: > 200 µM
[2]
  block of NMDA-induced LDH release (in words): partially blocked
Calpain I [3]; [6]
  IC50: 2.6 µM
Calpain I [3]; Table II (selectivity), read-out: Inhibitory Activity of Thiol-Acrylates, Calpain (IC50)
  IC50: 2.4 µM
thermolysin
  IC50: 394 µM
Calpain I [4]
  degradation of casein by calpain I (in words): almost completely blocked the degradation of casein at all time points

## CCOC(=O)/C(S)=C/c1ccc2ccccc2c1 [Example 6, Ethyl 2-Propenoic Acid, (Z)-2-mercapto-3-(2-naphthalenyl)-, Ethyl Ester]
Calpain I [5]; 0.2 unit rabbit liver esterase, 60 minutes
  inhibition of calpain upon preincubation with esterase (in words): shows activity only after it is hydrolyzed by cellular esterase; also recorded: strong inhibition on calpain
Calpain I [5]; as high as 500 μM, no esterase
  inhibition of calpain I without esterase (in words): did not inhibit calpain I
Calpain I [3]; [6]
  IC50: > 500 µM

## CC(C)CCNC(=O)[C@H](CC(C)C)NC(=O)[C@H]1O[C@@H]1C(=O)O [Example E64c]
Myocardiac infraction
  size of infract: significantly reduce the size of infract

## CCCC[C@@H](C=O)NC(=O)[C@H](CC(C)C)NC(=O)[C@H](CC(C)C)NC(C)=O [calpain inhibitor I] (Ac-Leu-Leu-[Nle]-aldehyde)
restenosis
  inhibition of restenosis: inhibit restenosis
Smooth muscle cells
  proliferation and migration of smooth muscle cells to the neoinitimal layer: controlling proliferation and migration of smooth muscle cells
